Among the data in patent US20250275959A1, “COMPOUNDS AND METHODS OF THEIR USE” (LEXICON PHARMACEUTICALS, INC., priority 2024, published 2025) are IC50 values, retold here.

pIC50: −log10 of the molar value. Where only a bound is given, the exact number is not on record here.

For this experiment, the target named is hACSL5 (Homo sapiens (Human), UniProt Q9ULC5). Description: Cell-based assay (CBA) with B12FA in hACSL5-transfected Expi293F / FlpIn TRex293 cells. Particulars: hACSL5-expressing cells. The method in brief: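 hACSL5-expressing Expi293F or tetracycline-induced FlpIn TRex293 cells, serum- and glucose-starved 1 h, then treated 3 h with serially diluted compound plus 20 µM B12FA. After fixation, 630/520 nm emission ratio (ex 485 nm) gave % inhibition versus no-inhibitor and 10 µM compound/non-induced controls; IC50 by Hill fit.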
Chain of hACSL5 (Q9ULC5 whole entry): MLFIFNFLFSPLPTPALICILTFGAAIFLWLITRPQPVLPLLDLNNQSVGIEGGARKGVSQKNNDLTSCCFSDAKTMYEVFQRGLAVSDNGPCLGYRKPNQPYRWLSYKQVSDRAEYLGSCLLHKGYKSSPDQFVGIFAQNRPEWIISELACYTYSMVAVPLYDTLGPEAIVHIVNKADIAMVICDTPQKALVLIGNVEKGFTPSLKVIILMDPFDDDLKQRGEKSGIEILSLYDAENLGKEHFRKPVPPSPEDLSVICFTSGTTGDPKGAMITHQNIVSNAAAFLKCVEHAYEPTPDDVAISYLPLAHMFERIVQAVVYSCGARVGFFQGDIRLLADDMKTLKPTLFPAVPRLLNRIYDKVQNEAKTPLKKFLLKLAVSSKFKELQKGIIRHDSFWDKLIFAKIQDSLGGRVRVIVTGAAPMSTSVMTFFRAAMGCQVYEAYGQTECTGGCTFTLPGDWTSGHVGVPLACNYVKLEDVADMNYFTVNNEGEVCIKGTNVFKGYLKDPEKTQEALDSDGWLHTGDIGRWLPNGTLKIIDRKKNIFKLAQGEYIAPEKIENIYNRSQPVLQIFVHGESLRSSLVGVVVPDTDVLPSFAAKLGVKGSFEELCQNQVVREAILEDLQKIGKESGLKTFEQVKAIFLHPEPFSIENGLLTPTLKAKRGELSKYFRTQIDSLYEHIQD
The molecule `CC[C@@H](Oc1ccc(C(=O)NS(=O)(=O)N2CCN(C)CC2)c(F)c1F)c1ccc(Oc2ccccn2)cn1` [Compound D, (R)-2,3-difluoro-N-((4-methylpiperazin-1-yl)sulfonyl)-4-(1-(5-(pyridin-2-yloxy)pyridin-2-yl)propoxy)benzamide] gave a pIC50 of over 7.00.

Molecule `CC[C@@H](Oc1ccc(C(=O)NS(=O)(=O)N2CCC(OCCN(C)C)CC2)c(F)c1F)c1ccc(Oc2ccccn2)cn1` [Compound C, (R)-N-((4-(2-(dimethylamino)ethoxy)piperidin-1-yl)sulfonyl)-2,3-difluoro-4-(1-(5-(pyridin-2-yloxy)pyridin-2-yl)propoxy)benzamide] had a negative-log IC50 (pIC50) of 6.30 to 7.00.

As for `CC[C@@H](Oc1ccc(C(=O)NS(=O)(=O)c2ccc(OCCN(C)C)cc2)c(F)c1F)c1ccc(OCC2CC2)cn1` [Compound B, (R)-4-(1-(5-(cyclopropylmethoxy)pyridin-2-yl)propoxy)-N-((4-(2-(dimethylamino)ethoxy)phenyl)sulfonyl)-2,3-difluorobenzamide], the pIC50 is 6.30 to 7.00.

As usually defined, the pIC50 is the IC50 on a negative log10 scale, so that one unit is a factor of ten.
